Results on 16 compounds are retold here after patent publication US7320984B2, “Remedies or preventives for urinary frequency or urinary incontinence and morphinan derivatives having nitrogen-containing heterocyclic group” (Toray Industries, Inc., priority 2002, dated 2008).

One experiment deals with rhythmic bladder contractions in rats. Put plainly: Inhibitory effect against rhythmic bladder contractions in rats. In kind it is in vivo. To be noted: anesthetized female SD rats, intravenous, dose 0.005 mg/kg body weight. An outline of the steps: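 Urethane-anesthetized (1.0 g/kg i.p.) female SD rats; saline infused into bladder to induce rhythmic contractions, intravesical pressure monitored. Compound given i.v. at 1 ml/kg in saline, 10% or 20% aqueous DMSO, or 5% aqueous xylitol. Inhibitory time = period intravesical pressure stayed ≤50% of post-dose level (onset within 10 min); vehicles tested alone.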
With `O=C1c2cccc(F)c2C(=O)N1[C@@H]1CC[C@@]2(O)[C@H]3Cc4ccc(O)c5c4[C@@]2(CCN3CC2CC2)[C@H]1O5` [Compound 17, N-(17-cyclopropylmethyl-4,5α-epoxy-3,14-dihydroxy-morphinan-6β-yl)-3-fluorophthalimide], the “Mean Inhibitory Time of Rhythmic Bladder Contractions” value (“Mean Inhibitory Time” below) is listed as 13.2 min.

The experiment is the same for the next values; noted with them: anesthetized female SD rats, intravenous, dose 0.01 mg/kg body weight.
Turning to `O=C1c2ccccc2S(=O)(=O)N1[C@@H]1CC[C@@]2(O)[C@H]3Cc4ccc(O)c5c4[C@@]2(CCN3CC2CC2)[C@H]1O5` [Compound 108, N-(17-cyclopropylmethyl-4,5α-epoxy-3,14-dihydroxy-morphinan-6β-yl)-O-sulfonebenzimide], the “Mean Inhibitory Time” value came to 25.6 min. Same read-out and setting: then `C=CCN1CC[C@]23c4c5ccc(O)c4O[C@H]2[C@@H](N2C(=O)c4ccccc4C2=O)CC[C@@]3(O)[C@H]1C5` [Compound 64, N-(17-allyl-4,5α-epoxy-3,14-dihydroxymorphinan-6α-yl)-phthalimide], with 20.8 min.

The same experiment, now with this note: anesthetized female SD rats, intravenous, dose 0.03 mg/kg body weight.
For the compound `Cc1ccc2c(c1)C(=O)N([C@@H]1CC[C@@]3(O)[C@H]4Cc5ccc(O)c6c5[C@@]3(CCN4CC3CC3)[C@H]1O6)C2=O` [Compound 12, N-(17-cyclopropylmethyl-4,5α-epoxy-3,14-dihydroxy-morphinan-6β-yl)-4-methylphthalimide], the “Mean Inhibitory Time” value came out at 16.5 min. As to `O=C1c2cc(F)ccc2CN1[C@@H]1CC[C@@]2(O)[C@H]3Cc4ccc(O)c5c4[C@@]2(CCN3CC2CC2)[C@H]1O5` [Compound 82, 2-(17-cyclopropylmethyl-4,5α-epoxy-3,14-dihydroxy-morphinan-6β-yl)-6-fluoro-2,3-dihydro-isoindol-1-one], the “Mean Inhibitory Time” value is reported as 19.9 min. For the compound `C=CCN1CC[C@]23c4c5ccc(O)c4O[C@H]2[C@@H](N2C(=O)c4cccc(C)c4C2=O)CC[C@@]3(O)[C@H]1C5` [Compound 61, N-(17-allyl-4,5α-epoxy-3,14-dihydroxymorphinan-6α-yl)-3-methylphthalimide], the “Mean Inhibitory Time” value was 22.6 min.

Still in this experiment, the particulars now being: anesthetized female SD rats, intravenous, dose 0.1 mg/kg body weight.
As for `CN1CC[C@]23c4c5ccc(O)c4O[C@H]2[C@H](N2C(=O)c4ccccc4C2=O)CC[C@H]3[C@H]1C5` [Compound 95, N-(4,5α-epoxy-3-hydroxy-17-methyl-morphinan-6β-yl)-phthalimide], the “Mean Inhibitory Time” value is 15.0 min.

On to `Nc1cccc2c1C(=O)N([C@@H]1CC[C@@]3(O)[C@H]4Cc5ccc(O)c6c5[C@@]3(CCN4CC3CC3)[C@H]1O6)C2=O` [Compound 97, N-(17-cyclopropylmethyl-4,5α-epoxy-3,14-dihydroxy-morphinan-6β-yl)-3-amino-phthalimide], for which the “Mean Inhibitory Time” value was 11.2 min.

Take `O=C1c2cc(Cl)c(Cl)cc2C(=O)N1[C@@H]1CC[C@@]2(O)[C@H]3Cc4ccc(O)c5c4[C@@]2(CCN3CC2CC2)[C@H]1O5` [Compound 55, N-[17-(cyclopropylmethyl)-4,5α-epoxy-3,14-dihydroxymorphinan-6β-yl]-4,5-dichlorophthaimide]: the “Mean Inhibitory Time” value is given as 15.0 min.

On to `O=C1/C(=C/c2ccccc2)CCN1[C@@H]1CC[C@@]2(O)[C@H]3Cc4ccc(O)c5c4[C@@]2(CCN3CC2CC2)[C@H]1O5` [Compound 50, 1-(17-cyclopropylmethyl-4,5α-epoxy-3,14-dihydroxy-morphinan-6β-yl)-3-benzylidene-pyrrolidin-2-one], for which the “Mean Inhibitory Time” value worked out at 12.8 min. As to `CN1CC[C@]23c4c5ccc(O)c4O[C@H]2[C@H](N2CCOc4ccccc42)CC[C@H]3[C@H]1C5` [Compound 4, 4,5α-epoxy-6β-(3,4-dihydro-2H-benzo [1,4]oxazino)-17-methyl-morphinan-3-ol], the “Mean Inhibitory Time” value was found to be 15.6 min.

With `O=C1[C@H]2C[C@H]2C(=O)N1[C@@H]1CC[C@@]2(O)[C@H]3Cc4ccc(O)c5c4[C@@]2(CCN3CC2CC2)[C@H]1O5` [Compound 79, N-(17-cyclopropylmethyl-4,5α-epoxy-3,14-dihydroxy-morphinan-6β-yl)-1,2-cyclopropanedicarboimide], the “Mean Inhibitory Time” value amounted to 2.1 min. On to `C=CCN1CC[C@]23c4c5ccc(O)c4O[C@H]2[C@H](N2CC4=C(CCCC4)C2=O)CC[C@@]3(O)[C@H]1C5` [Compound 84, 2-(17-allyl-4,5α-epoxy-3,14-dihydroxy-morphinan-6-yl)-2,3,4,5,6,7-hexahydro-isoindol-1-one], for which the “Mean Inhibitory Time” value was 9.3 min.

For the compound `CN1CCN([C@@H]2CC[C@@]3(O)[C@H]4Cc5ccc(O)c6c5[C@@]3(CCN4C)[C@H]2O6)c2ccccc21` [Compound 9, 4,5α-epoxy-6β-(3,4-dihydro-1-methyl-1H-quinoxalino)-17-methyl-morphinan-3,14-diol], the “Mean Inhibitory Time” value was determined as 9.1 min.

The same experiment, now with this note: anesthetized female SD rats, intravenous, dose 1.0 mg/kg body weight.
As for `CCN(CC)C(=O)[C@@H]1CCCN1[C@H]1CC[C@H]2[C@H]3Cc4ccc(O)c5c4[C@@]2(CCN3C)[C@H]1O5` [Compound 31, 1-(4,5α-epoxy-3-hydroxy-17-methyl-morphinan-6α-yl)-pyrrolidin-(2S)-carboxyl diethylamide], the “Mean Inhibitory Time” value came out at 1.0 min.

For `Oc1ccc2c3c1O[C@H]1[C@H](N4CCCC4)CC[C@@]4(O)[C@@H](C2)N(CC2CC2)CC[C@]314` [Compound 111, 17-cyclopropylmethyl-4,5α-epoxy-6β-(pyrrolidin-1-yl)-morphinan-3,14-diol], the “Mean Inhibitory Time” value is given as 2.8 min.
